Each structure is given as a SMILES string. Read-outs that look alike come from different tables or passages of the source.

For one assay, the target named is T1, AHK3 (Arabidopsis thaliana, UniProt Q9C5U1).
T1 construct: expressed in transfected cells; host or cells: Escherichia coli KMI001, plasmid pSTV28-AHK3
T1 sequence (Q9C5U1 1-1036): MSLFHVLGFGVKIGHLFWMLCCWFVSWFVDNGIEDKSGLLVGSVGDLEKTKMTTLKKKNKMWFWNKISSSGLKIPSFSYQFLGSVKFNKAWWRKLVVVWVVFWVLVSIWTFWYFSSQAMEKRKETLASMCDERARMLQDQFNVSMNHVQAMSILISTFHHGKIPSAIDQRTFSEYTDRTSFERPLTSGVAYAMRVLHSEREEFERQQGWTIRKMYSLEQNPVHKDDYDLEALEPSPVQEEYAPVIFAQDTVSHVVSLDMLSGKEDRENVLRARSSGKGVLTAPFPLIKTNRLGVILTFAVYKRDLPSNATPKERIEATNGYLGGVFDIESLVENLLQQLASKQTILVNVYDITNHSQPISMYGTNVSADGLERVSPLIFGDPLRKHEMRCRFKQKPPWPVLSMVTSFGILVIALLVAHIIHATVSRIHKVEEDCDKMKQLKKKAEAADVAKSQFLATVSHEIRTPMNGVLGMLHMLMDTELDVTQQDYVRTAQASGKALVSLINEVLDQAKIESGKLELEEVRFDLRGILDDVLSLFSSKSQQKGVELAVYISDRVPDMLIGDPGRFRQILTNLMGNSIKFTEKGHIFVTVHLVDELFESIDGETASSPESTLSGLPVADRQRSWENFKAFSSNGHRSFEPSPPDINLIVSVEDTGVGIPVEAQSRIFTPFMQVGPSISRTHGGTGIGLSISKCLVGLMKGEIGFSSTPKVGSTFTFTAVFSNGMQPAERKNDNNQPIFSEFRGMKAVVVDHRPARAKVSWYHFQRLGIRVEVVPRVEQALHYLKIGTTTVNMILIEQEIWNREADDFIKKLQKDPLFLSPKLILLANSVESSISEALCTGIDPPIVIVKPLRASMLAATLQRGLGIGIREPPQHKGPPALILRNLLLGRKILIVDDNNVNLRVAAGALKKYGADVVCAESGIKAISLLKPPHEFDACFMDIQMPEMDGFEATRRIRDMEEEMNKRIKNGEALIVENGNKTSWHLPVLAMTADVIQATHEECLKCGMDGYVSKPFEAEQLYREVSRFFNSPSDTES
Description: Activation of cytokinin receptor AHK3 in E. coli KMI001 (β-galactosidase reporter). The format is cell-based. The method, then: Escherichia coli strains KMI001 harbouring the plasmid pIN-III-AHK4 or pSTV28-AHK3 were grown overnight at 25° C. in M9 media enriched with 0.1% casamino acids to OD600˜1. The preculture was diluted 1:600 in 1 ml M9 medium containing 0.1% casamino acids and 1 μl stock solution of either the tested compound (10^−7 M−5×10^−5 M) or solvent control (DMSO, ethanol, methanol) were added. The cultures were further grown at 25° C. in microtiter plate, 200 μl per well. […] The cultures were centrifuged and 50 μl aliquots of the supernatant were transferred to microtiter plate containing 2 μl 50 mM 4-methyl umbelliferyl galactoside which was subsequently incubated for 1 h at 37° C. The reaction was stopped by adding 100 μl 0.2 M Na2CO3. Fluorescence was measured using a Fluoroscan Ascent (Labsystems, Finland) at the excitation and emission wavelengths of 365 and 460 nm, respectively. The OD600 of remaining culture was determined and β-galactosidase activity was calculated as nmol 4-methylumbelliferone×OD600^−1×h^−1.
The EC50 value, the compound concentration activating the receptor to 50%, was calculated from the obtained dose response curves. The compound functioning as cytokinin antagonists should not activate cytokinin signalling pathway. The values shown in Table 2 are means of three replicates and the entire test was repeated at least twice.

Assay [1] concerns breast carcinoma cell line MCF-7. The assay can be described thus: Calcein AM cytotoxicity assay, MCF-7. The format is cell-based, human. To be noted: Homo sapiens, MCF7, 72 hours. An excerpt:
Absence of toxic effects against mammalian (especially human) cell lines in a wide concentration range is one of the requirements on compounds intended for use in agriculture. Because toxic compounds negatively influence metabolic processes in cells, many standard cytotoxicity assays are based on measurement of metabolisation rate of various artificial substrates. Resulting product is then quantified e.g. by means of spectrometry. The assays can be easily modified for use in 96-well plates. For evaluation of cytotoxic effect of the novel substituted 6-(alkylbenzylamino)purine derivatives of this invention, a microtiter assay based on quantification of metabolisation of Calcein AM was used. The assay is widely used in drug screening programs and in chemosensitivity testing. In live cells, Calcein AM is enzymatically hydrolysed and accumulation of resulting calcein is manifested by green fluorescence.
The cells were maintained in Nunc/Corning 80 cm^2 plastic tissue culture flasks and cultured in cell culture medium (DMEM with 5 g/l glucose, 2 mM glutamine, 100 U/ml penicillin, 100 μg/ml streptomycin, 10% fetal calf serum and sodium bicarbonate).
The cell suspensions were prepared and diluted according to the particular cell type and the expected target cell density (10^4 cells per well based on cell growth characteristics) and pippetted (80 μl) into 96-well plates. Inoculates were allowed a pre-incubation period of 24 hours at 37° C., 100% humidity and 5% CO2 for stabilisation. Tested compounds were added in total volume of 20 μl of water at time zero. Usually, test compound was evaluated at six 3-fold dilutions. In routine testing, the highest concentration tested was 100 μM, the eventual changes depended on physico-chemical characteristics of the respective compound. All drug concentrations were tested in triplicates. Incubations of cells with the test compounds lasted for 72 hours at 37° C., in 5% CO2 atmosphere and 100% humidity. At the end of incubation period Calcein AM (Molecular Probes) in PBS was added into final concentration of 1 μg/ml. After another 1 hour of incubation fluorescence (FD) was measured with the Labsystem FIA Reader Fluoroscan Ascent (UK). Growth inhibition (GI) was estimated using the following equitation: GI=(mean FDdrug exposed wells−mean FDblank)/(mean FDcontrol wells−mean FDblank)×100%.

The test system of assay [2] is Human diploid fibroblasts SNF25. Description: MTT viability assay on human diploid fibroblasts. To be noted: Homo sapiens, Fibroblast; SNF25 passage 19, 72 hours; read-out: IC50 (reduction in mitochondrial activity, MTT). The format is cell-based. The procedure:
MTT is a standard colorimetric assay for measurement of proliferation and survival of the cells. Yellow MTT is reduced into violet formazan in metabolically active cells. The amount of formazan is measured by spectrometry. Human diploid fibroblasts SNF25 (passage 19) were seeded in 96-well plate (5000 cells per well). After 6 hours, the cultivation medium (DMEM containing 5 g/l glucose, 2 mM glutamin, 100 U/ml penicillin, 100 μg/ml streptomycin and 10% fetal calf serum) was removed and fresh medium containing a test compound in concentration range of 0-100 μM was added. The concentration was adjusted in cases of compounds with limited solubility. Each concentration was tested in 5 replicates. MTT was added to the cells after 72 hours into final concentration of 0.5 mg/ml. Incubation time was 3 hours. Resulting MTT was disolved in DMSO and absorbance was measured. The cytotoxic effect was estimated as IC=(Awells with compounds/Acontrol wells)×100%.

[3] abbreviates: E. coli KMI001 pSTV28-AHK3, 28 h incubation, n.i. means without interaction, read-out: EC50 AHK3 (activation of cytokinin receptor).

By EC50 is commonly meant the concentration giving half of the maximal effect. Broadly, the GI50 is the concentration that inhibits growth by half. In general, IC50 refers to the concentration needed to halve the response being measured. For `Cc1ccc(O)c(CNc2ncnc3nc[nH]c23)c1` [Compound 10, 6-(2-hydroxy-5-methylbenzylamino)purine], the concentration for a half-maximal effect (EC50) at AHK3 (setting [3]) is greater than 100 µM. In addition, the GI50 in assay [1] was greater than 100 µM. Moreover, in assay [2], the IC50 was greater than 100 µM.
On to `Cc1cccc(CNc2ncnc3nc[nH]c23)c1O` [Compound 8, 6-(2-hydroxy-3-methylbenzylamino)purine], for which the concentration for a half-maximal effect (EC50) at AHK3 (setting [3]) is greater than 100 µM. The GI50 in assay [1] is greater than 50 µM. Also, the IC50 in assay [2] is greater than 50 µM.
Regarding `c1ccc(CNc2ncnc3nc[nH]c23)cc1` [6-(benzylamino)purine], on AHK3, the 50% effective concentration (EC50) stood at 18.2 µM. In addition, the 50% growth inhibitory concentration (GI50) in assay [1] is greater than 100 µM. Besides, the IC50 in assay [2] is greater than 100 µM.

Values taken from patent US20100240537A1, “Substituted 6-(alkylbenzylamino)purine derivatives for use as cytokinin receptor antagonists and preparations containing these derivatives” (priority 2007, published 2010).
